{"source": "patent US20070123465A1", "about": "“Oligomeric peptides and their use for the treatment of hiv infections” (IPF PHARMACEUTICALS GMBH, priority 2004, published 2007)", "note": "Bridge positions count the residues as written; N and C are the ends. Square brackets hold non-standard residues; d marks the D form. Peptide text beside a SMILES is read from it. I, II: the chains in the order shown. dTic = O=C(O)[C@H]1Cc2ccccc2CN1; NMeL = CN[C@@H](CC(C)C)C(=O)O", "data": [{"system": "HIV-1 NL4-3", "assay_type": "cell-based", "conditions": "X4-tropic HIV-1 NL4-3, P4-CCR5 cells", "from_the_text": "P4-CCR5 indicator cells (Charneau et al., 1994; Journal of Molecular Biology 241, 651-662) expressing the primary CD4 receptor and both major HIV-1 entry cofactors CXCR4 and CCR5, were used to evaluate whether the oligomeric peptides according to the invention are potent inhibitors of HIV-1 infection. These cells contain the β-galactosidase reporter gene under the control of the HIV-1 promoter. Thus, activation of the β-galactosidase reporter gene allows to measure the efficiency of HIV-1 infection and thus to quantitate the potency of HIV-1 inhibitors (Detheux M. et al., 2000; Journal of Experimental Medicine 192, 1501-1508; Muinch et al., 2002; Antimicrobial Agents and Chemotherapy 46, 982-990).\nTo perform a typical infection assay, P4-CCR5 cells (Charneau et al., 1994; Journal of Molecular Biology 241, 651-662; Charneau et al., Virology. 1994 205, 247-53) were kept in RPMI 1640 medium supplemented with 10 volume % FCS. This cell line coexpresses CD4 and both HIV-1 coreceptors CCR5 and CXCR4 and contains the β-galactosidase gene under the control of the HIV-1 promoter. Virus stocks were generated by the calcium coprecipitation method as described (Detheux et al., 3 Exp Med. 192:1501-8; 2000), and the p24 antigen levels were quantitated with an HIV p24 ELISA kit obtained through the NIH AIDS Reagent Program. Cells were seeded in flat-bottomed 96-well dishes, cultured overnight, and incubated with the different doses of peptide for 2 h before infection with virus containing 1 ng of p24 antigen in a total volume of […] of medium. After overnight incubation, cells were washed twice and cultivated in fresh culture medium without inhibitory peptide. Three days after infection the cells were lysed, and infectivity was quantitated using the Galacto-Light Plus™ chemiluminescence reporter assay kit (Tropix, Bedford, Mass.) as recommended by the manufacturer. All infections were performed in quintuplicate.\nBelow, the IC50 values of peptides of the invention obtained from the described infection assay are provided.", "units": {"IC50": "µM"}, "values": [{"compound": "I: H-LEAIPMSIPPEFLFGKPFVFKG-OH / II: H-LEAIPMSIPPEFLFGKPFVF (amide I:21-II:C) [VIR-574]", "IC50": 3.08}, {"compound": "CC[C@H](C)[C@H](NC(=O)[C@H](CCCCN)NC(=O)[C@H](CCC(=O)O)NC(=O)[C@@H](N)CC(C)C)C(=O)N1CCC[C@H]1C(=O)N[C@@H](CSSC[C@H](NC(=O)[C@@H]1CCCN1C(=O)[C@@H](NC(=O)[C@H](CCCCN)NC(=O)[C@H](CCC(=O)O)NC(=O)[C@@H](N)CC(C)C)[C@@H](C)CC)C(=O)N[C@@H](CO)C(=O)N[C@H](C(=O)N1CCC[C@H]1C(=O)N1CCC[C@@H]1C(=O)N[C@@H](CCC(=O)O)C(=O)N[C@H](C(=O)N[C@@H](C)C(=O)N[C@@H](Cc1ccccc1)C(=O)N[C@@H](CC(N)=O)C(=O)N[C@@H](CCCCN)C(=O)N1CCC[C@H]1C(=O)N[C@@H](Cc1ccccc1)C(=O)N[C@H](C(=O)N[C@@H](Cc1ccccc1)C(=O)O)C(C)C)C(C)C)[C@@H](C)CC)C(=O)N[C@@H](CO)C(=O)N[C@H](C(=O)N1CCC[C@H]1C(=O)N1CCC[C@@H]1C(=O)N[C@@H](CCC(=O)O)C(=O)N[C@H](C(=O)N[C@@H](C)C(=O)N[C@@H](Cc1ccccc1)C(=O)N[C@@H](CC(N)=O)C(=O)N[C@@H](CCCCN)C(=O)N1CCC[C@H]1C(=O)N[C@@H](Cc1ccccc1)C(=O)N[C@H](C(=O)N[C@@H](Cc1ccccc1)C(=O)O)C(C)C)C(C)C)[C@@H](C)CC", "note": "[VIR-705, (LEKIPCSIPpEVAFNKPFVF)2] (I: H-LEKIPCSIP[dP]EVAFNKPFVF-OH / II: H-LEKIPCSIP[dP]EVAFNKPFVF-OH; disulfide I:6-II:6)", "IC50": 0.484}, {"compound": "CC[C@H](C)[C@H](NC(=O)[C@H](C)NC(=O)[C@H](CCC(=O)O)NC(=O)[C@H](CC(C)C)NC)C(=O)N1CCC[C@H]1C(=O)N[C@@H](CSSC[C@H](NC(=O)[C@@H]1CCCN1C(=O)[C@@H](NC(=O)[C@H](C)NC(=O)[C@H](CCC(=O)O)NC(=O)[C@H](CC(C)C)NC)[C@@H](C)CC)C(=O)N[C@@H](CO)C(=O)N[C@H](C(=O)N1CCC[C@H]1C(=O)N1CCC[C@H]1C(=O)N[C@@H](CCC(=O)O)C(=O)N[C@@H](Cc1ccccc1)C(=O)N[C@@H](CC(C)C)C(=O)N[C@@H](Cc1ccccc1)C(=O)NCC(=O)N[C@@H](CCCCN)C(=O)N1CCC[C@H]1C(=O)N[C@@H](Cc1ccccc1)C(=O)N[C@H](C(=O)N[C@@H](Cc1ccccc1)C(=O)O)C(C)C)[C@@H](C)CC)C(=O)N[C@@H](CO)C(=O)N[C@H](C(=O)N1CCC[C@H]1C(=O)N1CCC[C@H]1C(=O)N[C@@H](CCC(=O)O)C(=O)N[C@@H](Cc1ccccc1)C(=O)N[C@@H](CC(C)C)C(=O)N[C@@H](Cc1ccccc1)C(=O)NCC(=O)N[C@@H](CCCCN)C(=O)N1CCC[C@H]1C(=O)N[C@@H](Cc1ccccc1)C(=O)N[C@H](C(=O)N[C@@H](Cc1ccccc1)C(=O)O)C(C)C)[C@@H](C)CC", "note": "[VIR-712] (I: H-[NMeL]EAIPCSIPPEFLFGKPFVF-OH / II: H-[NMeL]EAIPCSIPPEFLFGKPFVF-OH; disulfide I:6-II:6; C-terminus assumed)", "IC50": 0.195}, {"compound": "CC[C@H](C)[C@H](NC(=O)[C@H](C)NC(=O)[C@H](CCC(=O)O)NC(=O)[C@@H](N)CC(C)C)C(=O)N1CCC[C@H]1C(=O)N[C@@H](CSSC[C@H](NC(=O)[C@@H]1CCCN1C(=O)[C@@H](NC(=O)[C@H](C)NC(=O)[C@H](CCC(=O)O)NC(=O)[C@@H](N)CC(C)C)[C@@H](C)CC)C(=O)NCC(=O)N[C@H](C(=O)N1CCC[C@H]1C(=O)N1CCC[C@@H]1C(=O)N[C@@H](CCC(=O)O)C(=O)N[C@H](C(=O)N1Cc2ccccc2C[C@@H]1C(=O)N[C@@H](Cc1ccccc1)C(=O)N[C@@H](CC(N)=O)C(=O)N[C@@H](CCCCN)C(=O)N1CCC[C@H]1C(=O)N[C@@H](Cc1ccccc1)C(=O)N[C@H](C(=O)N[C@@H](Cc1ccccc1)C(=O)O)C(C)C)C(C)C)[C@@H](C)CC)C(=O)NCC(=O)N[C@H](C(=O)N1CCC[C@H]1C(=O)N1CCC[C@@H]1C(=O)N[C@@H](CCC(=O)O)C(=O)N[C@H](C(=O)N1Cc2ccccc2C[C@@H]1C(=O)N[C@@H](Cc1ccccc1)C(=O)N[C@@H](CC(N)=O)C(=O)N[C@@H](CCCCN)C(=O)N1CCC[C@H]1C(=O)N[C@@H](Cc1ccccc1)C(=O)N[C@H](C(=O)N[C@@H](Cc1ccccc1)C(=O)O)C(C)C)C(C)C)[C@@H](C)CC", "note": "[VIR-706, (LEAIPCGIPpEV(D-Tic)FNKPFVF)2] (I: H-LEAIPCGIP[dP]EV[dTic]FNKPFVF-OH / II: H-LEAIPCGIP[dP]EV[dTic]FNKPFVF-OH; disulfide I:6-II:6; N-terminus and C-terminus assumed)", "IC50": 0.074}, {"compound": "CC[C@H](C)[C@H](NC(=O)[C@H](C)NC(=O)[C@H](CCC(=O)O)NC(=O)[C@@H](N)CC(C)C)C(=O)N1CCC[C@H]1C(=O)N[C@@H](CCSC)C(=O)N[C@@H](CSSC[C@H](NC(=O)[C@H](CCSC)NC(=O)[C@@H]1CCCN1C(=O)[C@@H](NC(=O)[C@H](C)NC(=O)[C@H](CCC(=O)O)NC(=O)[C@@H](N)CC(C)C)[C@@H](C)CC)C(=O)N[C@H](C(=O)N1CCC[C@H]1C(=O)N1CCC[C@H]1C(=O)N[C@@H](CCC(=O)O)C(=O)N[C@@H](Cc1ccccc1)C(=O)N[C@@H](CC(C)C)C(=O)N[C@@H](Cc1ccccc1)C(=O)NCC(=O)N[C@@H](CCCCN)C(=O)N1CCC[C@H]1C(=O)N[C@@H](Cc1ccccc1)C(=O)N[C@H](C(=O)N[C@@H](Cc1ccccc1)C(=O)O)C(C)C)[C@@H](C)CC)C(=O)N[C@H](C(=O)N1CCC[C@H]1C(=O)N1CCC[C@H]1C(=O)N[C@@H](CCC(=O)O)C(=O)N[C@@H](Cc1ccccc1)C(=O)N[C@@H](CC(C)C)C(=O)N[C@@H](Cc1ccccc1)C(=O)NCC(=O)N[C@@H](CCCCN)C(=O)N1CCC[C@H]1C(=O)N[C@@H](Cc1ccccc1)C(=O)N[C@H](C(=O)N[C@@H](Cc1ccccc1)C(=O)O)C(C)C)[C@@H](C)CC", "note": "[VIR-577] (I: H-LEAIPMCIPPEFLFGKPFVF-OH / II: H-LEAIPMCIPPEFLFGKPFVF-OH; disulfide I:7-II:7)", "IC50": 3.27}]}]}
